Assay type in all cases: biochemical
Test [1] addresses T1, Human MMP17 (Homo sapiens, UniProt Q9ULZ9).
T1 construct: purchased Calbiochem 475940
T1 sequence (Q9ULZ9 126-300 limits assumed): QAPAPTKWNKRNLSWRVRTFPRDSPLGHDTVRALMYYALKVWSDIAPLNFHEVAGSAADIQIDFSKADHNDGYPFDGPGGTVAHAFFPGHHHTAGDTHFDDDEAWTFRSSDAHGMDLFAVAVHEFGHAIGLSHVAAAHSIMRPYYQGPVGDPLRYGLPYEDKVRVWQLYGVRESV
Put plainly: MMP17 inhibition test. Particulars: concentration required for 50% inhibition of enzyme activity; read-out: IC50 value MMP-17.

For test [2], the target named is T2, Human MMP9 (Homo sapiens, UniProt P14780).
T2 construct: purchased Calbiochem 444231
T2 sequence (P14780 107-707 limits assumed): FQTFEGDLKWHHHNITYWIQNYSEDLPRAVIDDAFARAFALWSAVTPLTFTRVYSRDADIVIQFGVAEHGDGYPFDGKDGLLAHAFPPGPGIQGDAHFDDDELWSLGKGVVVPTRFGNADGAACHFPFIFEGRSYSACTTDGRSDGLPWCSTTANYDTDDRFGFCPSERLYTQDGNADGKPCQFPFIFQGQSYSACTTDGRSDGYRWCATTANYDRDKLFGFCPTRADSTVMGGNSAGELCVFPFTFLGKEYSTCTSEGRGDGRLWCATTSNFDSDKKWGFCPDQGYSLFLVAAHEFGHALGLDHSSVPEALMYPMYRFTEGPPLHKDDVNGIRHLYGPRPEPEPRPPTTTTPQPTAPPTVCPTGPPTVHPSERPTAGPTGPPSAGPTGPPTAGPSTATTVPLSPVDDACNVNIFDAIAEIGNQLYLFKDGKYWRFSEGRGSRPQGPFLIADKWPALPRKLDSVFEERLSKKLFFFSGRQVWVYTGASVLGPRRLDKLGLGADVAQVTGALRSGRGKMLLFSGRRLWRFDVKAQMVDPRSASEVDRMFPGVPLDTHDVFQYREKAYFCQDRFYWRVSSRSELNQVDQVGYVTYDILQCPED
Put plainly: MMP9 inhibition experiment. Particulars: read-out: IC50 value MMP-9.
Method: This enzyme solution in amount of 1 μL was diluted to 90 μL with the assay buffer A, which was added to 90 μL of 20 μM fluorescent substrate (Dnp-Pro-Cha-Gly-Cys(Me)-His-Ala-Lys(Nma)-NH2) prepared in the assay buffer B, followed by reaction for 4 hours at 37° C.

Test [3] addresses T3, Human MMP3 (Homo sapiens, UniProt P08254).
T3 construct: purchased Calbiochem 444217
Put plainly: MMP3 inhibition experiment. The following applies: concentration required for 50% inhibition of enzyme activity; read-out: IC50 value MMP-3. The procedure: (§1) MMP inhibition experiment may be carried out using a fluorescent synthetic substrate according to, for example, the methods of Bickett et al. (D. Mark Bickett et al., Anal. Biochem., 1993, 212, 58-64) and Nagase et al. (H. Nagase et al., J. Biol. Chem., 1994, 269, 20952-20957). The methods of inhibition experiments carried out for various MMPs are described below.
Human MMP3 (Calbiochem #444217) in 90 μL (5 ng) prepared in the assay buffer A was added to 90 μL of 20 μM fluorescent substrate NFF-3(MOCAc-Arg-Pro-Lys-Pro-Val-Glu-Nva-Trp-Arg-Lys(Dnp)-NH2, Peptide Institute, Inc., #3168-v) prepared in the assay buffer B, followed by reaction for 5 hours at 37° C.

In test [4] the target is T4, Human MMP13 (Homo sapiens, UniProt P45452).
T4 construct: purchased Chemicon CC068
Nature of the test: MMP13 inhibition experiment. The following applies: concentration required for 50% inhibition of enzyme activity; read-out: IC50 value MMP-13.
Method: Human MMP13 (Chemicon #CC068) in amount of 90 μL (200 ng) was activated by mixing with 10 μL of 10 mM APMA, followed by reaction for 1 hour at 37° C. This enzyme solution in amount of 0.6 μL was diluted to 90 μL with the assay buffer A, which was added to 90 μL of 20 μM fluorescent substrate (Dnp-Pro-Cha-Gly-Cys(Me)-His-Ala-Lys(Nma)-NH2) prepared in the assay buffer B, followed by reaction for 4 hours at 37° C.

The target of test [5] is T5, Human MMP14 (Homo sapiens, UniProt P50281).
T5 construct: purchased Biogenesis or Calbiochem 5980-1461 or 475935
Put plainly: MMP14 inhibition experiment. Particulars: concentration required for 50% inhibition of enzyme activity; read-out: IC50 value MMP-14. The procedure:
as §1
Human MMP14 (Biogenesis #5980-1461 or Calbiochem #475935) in amount of 90 μL (4 ng) prepared in the assay buffer A was added to 90 μL of 20 μM fluorescent substrate (Dnp-Pro-Cha-Gly-Cys(Me)-His-Ala-Lys(Nma)-NH2) prepared in the assay buffer B, followed by reaction for 5 hours at 37° C.

Test [6] concerns the target T6, TACE (Homo sapiens, UniProt P78536).
T6 construct: made in house; host or cells: mammalian cells or insect cells
Put plainly: TACE inhibition experiment (in vitro).

Test [7] deals with T7, Human MMP1 (Homo sapiens, UniProt P03956).
T7 construct: purchased Calbiochem 444208
T7 sequence (P03956 100-469): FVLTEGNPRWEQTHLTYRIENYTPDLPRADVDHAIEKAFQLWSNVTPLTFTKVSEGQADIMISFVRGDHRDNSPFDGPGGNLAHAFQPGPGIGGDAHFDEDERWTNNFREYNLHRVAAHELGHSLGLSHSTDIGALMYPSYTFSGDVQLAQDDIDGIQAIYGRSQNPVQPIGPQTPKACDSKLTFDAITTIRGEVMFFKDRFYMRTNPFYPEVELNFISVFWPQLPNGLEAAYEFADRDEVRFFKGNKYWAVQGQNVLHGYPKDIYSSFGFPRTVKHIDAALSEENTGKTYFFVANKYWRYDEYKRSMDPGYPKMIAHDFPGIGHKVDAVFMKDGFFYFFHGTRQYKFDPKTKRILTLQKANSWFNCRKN
Nature of the test: MMP1 inhibition experiment. Particulars: read-out: IC50 value MMP-1.
Method: This enzyme solution in amount of 10 μL was diluted to 90 μL with the assay buffer A, which was added to 90 μL of 20 μM fluorescent substrate (Dnp-Pro-Cha(β-cyclohexylalanyl)-Gly-Cys(Me)-His-Ala-Lys(Nma)-NH2) prepared in the assay buffer B, followed by reaction for 5 hours at 37° C.

[8] abbreviates: concentration required for 50% inhibition of enzyme activity.

Like-named read-outs stand apart in the source and are kept apart here.

What is called IC50 is the concentration needed to halve the response being measured.

T3 sequence (P08254 100-272 limits assumed): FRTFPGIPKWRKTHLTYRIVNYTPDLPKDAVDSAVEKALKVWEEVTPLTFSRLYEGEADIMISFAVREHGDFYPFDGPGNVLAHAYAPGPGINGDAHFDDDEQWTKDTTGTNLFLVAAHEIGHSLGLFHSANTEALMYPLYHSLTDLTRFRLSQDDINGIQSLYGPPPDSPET
T6 sequence (P78536 215-824): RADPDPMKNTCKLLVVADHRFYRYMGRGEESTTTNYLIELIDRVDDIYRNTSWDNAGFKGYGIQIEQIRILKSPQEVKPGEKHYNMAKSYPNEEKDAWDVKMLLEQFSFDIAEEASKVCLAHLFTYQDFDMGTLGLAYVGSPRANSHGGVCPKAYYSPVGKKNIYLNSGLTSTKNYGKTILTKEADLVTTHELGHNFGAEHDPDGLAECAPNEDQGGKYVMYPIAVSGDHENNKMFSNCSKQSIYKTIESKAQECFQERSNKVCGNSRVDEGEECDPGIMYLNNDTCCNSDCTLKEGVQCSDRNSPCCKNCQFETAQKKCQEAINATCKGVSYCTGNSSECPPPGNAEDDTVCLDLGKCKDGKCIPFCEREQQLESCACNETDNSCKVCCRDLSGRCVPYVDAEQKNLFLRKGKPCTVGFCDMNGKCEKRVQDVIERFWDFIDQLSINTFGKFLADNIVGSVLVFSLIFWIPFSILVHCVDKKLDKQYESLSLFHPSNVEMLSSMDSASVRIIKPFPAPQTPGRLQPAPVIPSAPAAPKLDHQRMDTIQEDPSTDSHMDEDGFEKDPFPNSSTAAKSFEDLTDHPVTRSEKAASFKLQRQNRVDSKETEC

`C[C@@H]1O[C@@H](CO)CN(S(=O)(=O)c2ccc(OCc3ccc(F)cc3)cc2)[C@H]1C(=O)NO` [compound 2, reference compound]: the IC50 in test [1] stood at 21 nM; in test [2] (setting [8]) it was 20 nM; in test [3], 40 nM; in test [4], 4 nM; in test [5], 100 nM; in test [6] (setting [8]), 5 nM. Further, the IC50 in test [7] (setting [8]) was found to be 3000 nM. Compound `Cc1ccc2nc(C)cc(COc3ccc(S(=O)(=O)CC(c4ccc(C)nc4)N(O)C=O)cc3)c2c1` (stereo not drawn) [Example I-147] had an IC50 in test [6] of 4.3 nM. On the same count and under the same terms, as for `CCN1CCC(C(CS(=O)(=O)c2ccc(OCc3cc(C)nc4ccccc34)cc2)N(O)C=O)CC1` (stereo not drawn) [Example I-156], the figure is 33 nM; as for `COCc1cc(COc2ccc(S(=O)(=O)CC(CC3CCC4(CC3)OCCO4)N(O)C=O)cc2)cc(C)n1` (stereo not drawn) [Example I-121], 360 nM. Same read-out and setting: as for `CCN1CCCC(C(CS(=O)(=O)c2ccc(OCc3cc(C)nc4ccccc34)cc2)N(O)C=O)C1` (stereo not drawn) [Example I-153], the figure is 33 nM; as for `O=CN(O)C(CC1CCC2(CC1)OCCO2)CS(=O)(=O)c1ccc(OCc2ccc3ccccc3n2)cc1` (stereo not drawn) [Example I-87], 5700 nM. The same measure, in the same setting: the result for `O=CN(O)C(CC1CCC(=NO)CC1)CS(=O)(=O)c1ccc(OCc2ccc3ccccc3n2)cc1` (stereo not drawn) [Example I-88] reads 760 nM; that for `Cc1cc(COc2ccc(S(=O)(=O)CC(C3CCCN(CC(C)C)C3)N(O)C=O)cc2)c2ccccc2n1` (stereo not drawn) [Example I-154], 31 nM; that for `CCC(CC)C(=O)N1CCC(=CC(CS(=O)(=O)c2ccc(OCc3cc(C)nc4ccc(C)cc34)cc2)N(O)C=O)CC1` (stereo not drawn) [Example I-173], 5 nM. The compound `CCC(CC)CN1CCC(=CC(CS(=O)(=O)c2ccc(OCc3cc(C)nc4ccc(C)cc34)cc2)N(O)C=O)CC1` (stereo not drawn) [Example I-174] yielded an IC50 in test [6] of 15 nM. On the same count and under the same terms, the result for `CCC(CC)C(=O)N1CCCC(=CC(CS(=O)(=O)c2ccc(OCc3cc(C)nc4ccccc34)cc2)N(O)C=O)CC1` (stereo not drawn) [Example I-139] reads 8.2 nM. As for `C=C1CCC(C(CS(=O)(=O)c2ccc(OCc3cc(C)nc(C)c3)cc2)N(O)C=O)CC1` (stereo not drawn) [Example I-4, N-[2-{4-(2,6-dimethylpyridin-4-ylmethoxy)benzenesulfonyl}-1-(4-methylenecyclohexyl)ethyl]-N-hydroxyformamide], the half-inhibitory concentration (IC50) in test [1] came out at 2000 nM; in test [2], 40000 nM; in test [3] it was 5000 nM; in test [4], 2500 nM; in test [5] it was 43000 nM; in test [6] it was 60 nM. The IC50 in test [7] is more than 100000 nM. For `Cc1cc(COc2ccc(S(=O)(=O)CC(CCc3ccccc3C)N(O)C=O)cc2)c2ccccc2n1` (stereo not drawn) [Example I-40], in test [6], the IC50 turned out to be 270 nM. Still for that read-out and setting: as for `CCC(CC)CN1CCCC(C(CS(=O)(=O)c2ccc(OCc3cc(C)nc4ccccc34)cc2)N(O)C=O)C1` (stereo not drawn) [Example I-160], the figure is 50 nM; as for `Cc1cc(COc2ccc(S(=O)(=O)CC(CCC3=CCCC(O)C3)N(O)C=O)cc2)c2ccccc2n1` (stereo not drawn) [Example I-146], 9.4 nM. Same read-out and setting: as for `Cc1cc(COc2ccc(S(=O)(=O)CC(CC3CCCN(C(=O)OC(C)(C)C)C3)N(O)C=O)cc2)c2ccccc2n1` (stereo not drawn) [Example I-157], the figure is 13 nM. Turning to `C=C1CCC(C(CS(=O)(=O)c2ccc(OCc3cc(C)nc4ccccc34)cc2)N(O)C=O)CC1` (stereo not drawn) [Example I-1, N-hydroxy-N-[1-(4-methylenecyclohexyl)-2-{4-(2-methylquinolin-4-ylmethoxy)benzenesulfonyl}ethyl]formamide], the IC50 in test [1] came to 2000 nM; in test [3], 6000 nM; in test [4], 7300 nM; in test [5], 40000 nM; in test [7] it was 50000 nM. In test [6], `CCN1CCCC(CC(CS(=O)(=O)c2ccc(OCc3cc(C)nc4ccccc34)cc2)N(O)C=O)C1` (stereo not drawn) [Example I-158] had a half-inhibitory concentration (IC50) of 26 nM. As to `Cc1cc(COc2ccc(S(=O)(=O)CC(C3CCC(=NO)CC3)N(O)C=O)cc2)c2ccccc2n1` (stereo not drawn) [Example I-14], the IC50 in test [5] stood at 23000 nM; in test [7], 30000 nM. In the case of `CCC(CC)C(=O)N1CCC(CC(CS(=O)(=O)c2ccc(OCc3cc(C)nc4ccc(C)cc34)cc2)N(O)C=O)CC1` (stereo not drawn) [Example I-175], in test [6], the IC50 worked out at 11 nM. `COCc1cc(COc2ccc(S(=O)(=O)CC(CC3CCC(=O)CC3)N(O)C=O)cc2)cc(C)n1` (stereo not drawn) [Example I-123] gave an IC50 in test [6] of 290 nM. Take `Cc1ccc2nc(C)cc(COc3ccc(S(=O)(=O)CC([C@@H]4CSC(=O)N4C)N(O)C=O)cc3)c2c1` (stereo partly drawn) [Example I-148]: in test [6], the half-inhibitory concentration (IC50) was 13 nM. On the same count and under the same terms, the result for `Cc1cc(COc2ccc(S(=O)(=O)CC(CCC3(C)CCOCC3)N(O)C=O)cc2)c2ccccc2n1` (stereo not drawn) [Example I-144] reads 7.2 nM. Regarding `Cc1cc(COc2ccc(S(=O)(=O)CC(C=C3CCC(=NO)CC3)N(O)C=O)cc2)c2ccccc2n1` (stereo not drawn) [Example I-6, N-Hydroxy-N-[1-(4-hydroxyiminocyclohexylidenemethyl)-2-{4-(2-methylquinolin-4-ylmethoxy)benzenesulfonyl}ethyl]formamide], the IC50 in test [1] was 3000 nM; in test [2] it was 45000 nM; in test [3], 5000 nM; in test [4], 15000 nM; in test [5], 50000 nM; in test [7], 80000 nM. The compound `Cc1cc(COc2ccc(S(=O)(=O)CC(/C=C/C3(C)CCOCC3)N(O)C=O)cc2)c2ccccc2n1` (stereo not drawn) [Example I-143] returned an IC50 in test [6] of 3.3 nM.

In turn, `Cc1cc(C)cc(COc2ccc(S(=O)(=O)CC(CC3CCC4(CC3)OCCO4)N(O)C=O)cc2)c1` (stereo not drawn) [Example I-90] had an IC50 in test [6] of 2100 nM. In turn, `Cc1cccc(C(CS(=O)(=O)c2ccc(OCc3cc(C)nc4ccccc34)cc2)N(O)C=O)n1` (stereo not drawn) [Example I-135] yielded an IC50 in test [6] of 4 nM. `Cc1cc(COc2ccc(S(=O)(=O)CC(C=C3CCCN(S(C)(=O)=O)CC3)N(O)C=O)cc2)c2ccccc2n1` (stereo not drawn) [Example I-138] showed an IC50 in test [6] of 2.8 nM. As to `Cc1cc(COc2ccc(S(=O)(=O)CC(N(O)C=O)C3(C)CCN(C(=O)OC(C)(C)C)CC3)cc2)c2ccccc2n1` (stereo not drawn) [Example I-161], 44 nM corresponded to half-maximal inhibition in test [6] (IC50). In test [6], `CCC(CC)C(=O)N1CC/C(=C\C(CS(=O)(=O)c2ccc(OCc3cc(C)nc4ccccc34)cc2)N(O)C=O)C(C)(C)C1` (stereo not drawn) [Example I-141] displayed an IC50 of 3.3 nM.

`Cc1cc(COc2ccc(S(=O)(=O)CC(/C=C3\CCN(CC(C)C)CC3(C)C)N(O)C=O)cc2)c2ccccc2n1` (stereo not drawn) [Example I-142] showed an IC50 in test [6] of 18 nM. Still for that read-out and setting: as for `O=CN(O)C(CC1CCC(=O)CC1)CS(=O)(=O)c1ccc(OCc2ccc3ccccc3n2)cc1` (stereo not drawn) [Example I-89], the figure is 820 nM. In test [6], `COc1ccc(CCC(CS(=O)(=O)c2ccc(OCc3cc(C)nc4ccccc34)cc2)N(O)C=O)c(C)c1C` (stereo not drawn) [Example I-145] came in with a concentration for half-maximal inhibition (IC50) of 210 nM. On the same count and under the same terms, the result for `Cc1cc(COc2ccc(S(=O)(=O)CC(C=C3CCCN(CC(C)C)CC3)N(O)C=O)cc2)c2ccccc2n1` (stereo not drawn) [Example I-140] reads 8.2 nM; that for `Cc1cc(COc2ccc(S(=O)(=O)CC(CC3=CCN(C(=O)OC(C)(C)C)CC3(C)C)N(O)C=O)cc2)c2ccccc2n1` (stereo not drawn) [Example I-152], 13 nM.

(Values after patent publication US7511144B2, “Reverse hydroxamic acid derivatives” (Kaken Pharmaceutical Co., Ltd., priority 2001, dated 2009).)
